Here are results for 1 compound from patent US11351172B2, “Pharmaceutical composition and use for applying ribociclib in phosphodiesterase 4-mediated disease treatment of patient and inhibition of phosphodiesterase 4 activity” (Chang Gung University, priority 2019, dated 2022).

SMILES strings stand for the structures.

The target of one assay is T1, PDE3B (Homo sapiens, UniProt Q13370).
T1 construct: purchased BPS bioscience
The assay is described as follows: PDE enzymatic activity, HTRF cAMP dynamic test. The note with it: 0.1 to 30 μM; FIG. 1E. The assay is classed as biochemical. As to the method:
(§1) Enzymatic activities of PDE subtypes were analyzed according to the user manual of HTRF® package insert cAMP dynamic tests (Cisbio bioassays, catalog number 62AM4PEB). Ribociclib was dissolved in DMSO (as solvent) and then added to PDE assay buffer which contains PDE4A, PDE4B, PDE4C, PDE4D, PDE3B or PDE7A (sold by BPS bioscience). The final concentration of Ribociclib was 0.1 to 30 μM. Then, the mixtures were incubated for 10 minutes at 37° C. PDE assay buffer which was added by DMSO (solvent, marked as “−” in FIGS. 1A-1F) instead of Ribociclib was as a control in this experiment. 60 nM of cAMP was added to each reagent and then incubated for 45 minutes at 37° C. After incubation, cAMP-d2 and anti-cAMP-cryptate were added to each reagent and react at room temperature for 1 hour away from light. Finally, the reagents were quantified by the luminometer (TECAN infinite 200 Pro) to detect enzymatic activities of PDE subtypes.
Background: TR-FRET usually uses a lanthanide donor and a delayed reading to cut background.

Another assay has as its target T2, PDE4A (Homo sapiens, UniProt P27815).
T2 construct: purchased BPS bioscience
The assay is described as follows: PDE enzymatic activity, HTRF cAMP dynamic test. The note with it: 0.1 μM, 0.3 μM, 1 μM, 3 μM and 10 μM; compared with DMSO control; n=6; FIG. 1A. The assay is classed as biochemical. The protocol: as §1

The next assay deals with T3, PDE4B (Homo sapiens, UniProt Q07343).
T3 construct: purchased BPS bioscience
The assay is described as follows: PDE enzymatic activity, HTRF cAMP dynamic test. In kind it is biochemical. Particulars: 3 μM, 10 μM and 30 μM; compared with DMSO control; n=6; FIG. 1B. The protocol: as §1

For the next assay, the target named is T4, PDE4C (Homo sapiens, UniProt Q08493).
T4 construct: purchased BPS bioscience
Briefly: PDE enzymatic activity, HTRF cAMP dynamic test. The assay is classed as biochemical. The note with it: 3 μM, 10 μM and 30 μM; compared with DMSO control; n=6; FIG. 1C. As to the method: as §1

A further assay concerns the target T5, PDE4D (Homo sapiens, UniProt Q08499).
T5 construct: purchased BPS bioscience
The assay is described as follows: PDE enzymatic activity, HTRF cAMP dynamic test. The assay is classed as biochemical. The note with it: 10 μM and 30 μM; compared with DMSO control; n=6; FIG. 1D. As to the method:
as §1

Another assay deals with T6, PDE7A (Homo sapiens, UniProt Q13946).
T6 construct: purchased BPS bioscience
The assay is described as follows: PDE enzymatic activity, HTRF cAMP dynamic test. In kind it is biochemical. The note with it: 0.1 to 30 μM; FIG. 1F. As to the method: as §1

Another assay concerns Human neutrophils. The assay is described as follows: Superoxide anion generation in fMLF-stimulated neutrophils (ferricytochrome c reduction). In kind it is cell-based. Particulars: 1 μM, 3 μM and 10 μM; fMLF (0.1 μM)/cytochalasin B (1 μg/ml) stimulated; p<0.001 vs control; n=6; FIG. 2. As to the method: The informed consent to participate which was approved by the Institutional Review Board are signed by the donors. 50 mL of blood was collected from the median cubital vein of each donor by sterile vacutainer, and was used to isolate neutrophils for the following experiments. Human neutrophils (isolated from whole blood of donors) were incubated with DMSO (as solvent, marked as “−” in the groups at X-axis in FIGS. 2A and 2B) or Ribociclib (0.3-10 μM) for 5 minutes, and then stimulated the neutrophils with or without fMLF (0.1 μM)/cytochalasin B (CB, 1 μg/ml) for another 10 minutes to activate the neutrophils. The absorbance (OD550) of the reaction mixture was then measured by a spectrophotometer at OD 550 nm. The reading of OD550 is used to detect the reduction of ferricytochrome c, which indicates the amount of superoxide anion. Cytochalasin B was sold by Sigma-Aldrich, catalog number #2506; fMLF was sold by Sigma-Aldrich, catalog number #454454; model number of the spectrophotometer is HITACHI U-3010.

Another assay concerns IMQ-treated mice. The assay is described as follows: Psoriasis-like symptoms in IMQ-treated mice. The assay is classed as in vivo, BALB/c mice. Particulars: applied on back skin once per day for 5 days before IMQ, FIG. 3. As to the method: 250 μg or 500 μg of Ribociclib was dissolved in 50 μl of 0.5% (w/v) methylcellulose 400 solution to make a pharmaceutical composition. The Ribociclib concentration of the pharmaceutical composition was 250 μg/50 μl or 500 μg/50 μl and used in the subsequent animal experimental examples 4 and 5. Male BALB/c mice (7-9 weeks of age, the body weight of each mouse is about 25 g) were divided into different groups, and each group has 6 mice. Each mouse was epilation on the back and then treated with 50 μl of solvent (0.5% methylcellulose 400) or 50 μl of the pharmaceutical composition prepared in example 3 (the concentration of Ribociclib is 10 or 20 mg/kg of body weight) by applying on the nude back skin before topical treatment of imiquimod (IMQ, sold by 3M Health Care Limited). And then applying with or without IMQ on the nude back skin of mice to cause psoriasis-like symptom. Each treatment was given once per day for 5 consecutive days. The mice which applying solvent and IMQ is played as the control. The mice which merely applying solvent is played as the blank.

T2 sequence (P27815 whole entry): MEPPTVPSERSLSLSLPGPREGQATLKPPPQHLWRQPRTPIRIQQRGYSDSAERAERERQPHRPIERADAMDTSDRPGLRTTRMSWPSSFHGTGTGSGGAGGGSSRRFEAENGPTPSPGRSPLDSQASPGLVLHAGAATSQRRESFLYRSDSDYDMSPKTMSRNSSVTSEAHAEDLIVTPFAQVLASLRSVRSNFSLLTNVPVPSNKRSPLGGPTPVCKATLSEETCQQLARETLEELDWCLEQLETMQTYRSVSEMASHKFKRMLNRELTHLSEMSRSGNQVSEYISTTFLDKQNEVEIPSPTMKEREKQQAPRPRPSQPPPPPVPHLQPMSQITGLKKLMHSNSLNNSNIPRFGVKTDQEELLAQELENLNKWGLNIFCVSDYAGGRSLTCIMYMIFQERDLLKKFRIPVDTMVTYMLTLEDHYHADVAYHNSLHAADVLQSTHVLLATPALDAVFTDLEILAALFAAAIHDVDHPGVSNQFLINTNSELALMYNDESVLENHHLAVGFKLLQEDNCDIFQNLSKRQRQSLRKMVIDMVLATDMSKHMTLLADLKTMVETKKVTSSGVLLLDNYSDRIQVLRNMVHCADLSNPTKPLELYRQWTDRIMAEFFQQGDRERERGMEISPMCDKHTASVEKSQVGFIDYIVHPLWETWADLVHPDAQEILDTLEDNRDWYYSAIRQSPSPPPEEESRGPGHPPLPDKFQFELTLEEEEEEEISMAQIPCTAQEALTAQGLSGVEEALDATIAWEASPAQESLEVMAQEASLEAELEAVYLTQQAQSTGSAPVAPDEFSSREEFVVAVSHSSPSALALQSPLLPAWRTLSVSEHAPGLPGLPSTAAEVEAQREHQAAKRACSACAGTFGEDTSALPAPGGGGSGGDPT
T6 sequence (Q13946 whole entry): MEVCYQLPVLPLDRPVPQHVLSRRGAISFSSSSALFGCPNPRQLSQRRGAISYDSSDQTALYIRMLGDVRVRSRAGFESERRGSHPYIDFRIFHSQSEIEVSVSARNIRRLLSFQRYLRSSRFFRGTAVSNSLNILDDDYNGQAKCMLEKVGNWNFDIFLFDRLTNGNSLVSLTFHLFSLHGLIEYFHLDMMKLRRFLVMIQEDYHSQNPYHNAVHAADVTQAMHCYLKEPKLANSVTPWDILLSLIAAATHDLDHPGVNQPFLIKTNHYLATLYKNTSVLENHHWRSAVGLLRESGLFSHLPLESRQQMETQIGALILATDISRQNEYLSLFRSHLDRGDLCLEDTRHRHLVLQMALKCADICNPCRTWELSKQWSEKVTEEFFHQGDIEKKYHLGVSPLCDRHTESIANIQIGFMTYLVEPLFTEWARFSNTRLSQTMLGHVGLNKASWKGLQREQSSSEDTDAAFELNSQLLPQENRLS
T1 sequence (Q13370 whole entry): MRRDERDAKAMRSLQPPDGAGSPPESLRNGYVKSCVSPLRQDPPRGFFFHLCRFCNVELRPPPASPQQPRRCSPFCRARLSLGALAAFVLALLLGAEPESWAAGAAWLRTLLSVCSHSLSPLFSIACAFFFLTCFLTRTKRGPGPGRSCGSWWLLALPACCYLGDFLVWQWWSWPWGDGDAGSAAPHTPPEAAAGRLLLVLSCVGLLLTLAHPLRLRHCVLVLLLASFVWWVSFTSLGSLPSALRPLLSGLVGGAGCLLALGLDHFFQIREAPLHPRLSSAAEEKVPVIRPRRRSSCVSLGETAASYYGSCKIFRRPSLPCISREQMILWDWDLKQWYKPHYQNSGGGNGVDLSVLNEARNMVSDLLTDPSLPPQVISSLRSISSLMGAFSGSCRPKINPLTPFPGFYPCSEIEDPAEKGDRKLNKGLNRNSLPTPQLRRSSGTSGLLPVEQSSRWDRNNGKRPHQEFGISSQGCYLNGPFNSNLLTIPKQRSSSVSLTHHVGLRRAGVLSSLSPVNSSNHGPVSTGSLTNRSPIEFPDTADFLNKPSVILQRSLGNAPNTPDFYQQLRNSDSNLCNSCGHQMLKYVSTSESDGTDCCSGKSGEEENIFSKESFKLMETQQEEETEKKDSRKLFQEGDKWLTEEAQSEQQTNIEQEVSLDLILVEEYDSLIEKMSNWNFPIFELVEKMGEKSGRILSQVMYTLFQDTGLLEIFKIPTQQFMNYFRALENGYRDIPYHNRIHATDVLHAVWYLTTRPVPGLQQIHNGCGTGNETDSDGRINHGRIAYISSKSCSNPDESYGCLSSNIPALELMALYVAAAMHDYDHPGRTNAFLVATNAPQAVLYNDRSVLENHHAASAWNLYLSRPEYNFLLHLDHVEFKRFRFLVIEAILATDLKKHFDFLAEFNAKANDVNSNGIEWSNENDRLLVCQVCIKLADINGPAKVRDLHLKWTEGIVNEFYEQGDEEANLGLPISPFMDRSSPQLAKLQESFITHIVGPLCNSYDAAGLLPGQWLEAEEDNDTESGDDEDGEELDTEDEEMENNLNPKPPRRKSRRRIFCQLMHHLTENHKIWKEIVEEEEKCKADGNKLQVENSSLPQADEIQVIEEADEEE
T4 sequence (Q08493 whole entry): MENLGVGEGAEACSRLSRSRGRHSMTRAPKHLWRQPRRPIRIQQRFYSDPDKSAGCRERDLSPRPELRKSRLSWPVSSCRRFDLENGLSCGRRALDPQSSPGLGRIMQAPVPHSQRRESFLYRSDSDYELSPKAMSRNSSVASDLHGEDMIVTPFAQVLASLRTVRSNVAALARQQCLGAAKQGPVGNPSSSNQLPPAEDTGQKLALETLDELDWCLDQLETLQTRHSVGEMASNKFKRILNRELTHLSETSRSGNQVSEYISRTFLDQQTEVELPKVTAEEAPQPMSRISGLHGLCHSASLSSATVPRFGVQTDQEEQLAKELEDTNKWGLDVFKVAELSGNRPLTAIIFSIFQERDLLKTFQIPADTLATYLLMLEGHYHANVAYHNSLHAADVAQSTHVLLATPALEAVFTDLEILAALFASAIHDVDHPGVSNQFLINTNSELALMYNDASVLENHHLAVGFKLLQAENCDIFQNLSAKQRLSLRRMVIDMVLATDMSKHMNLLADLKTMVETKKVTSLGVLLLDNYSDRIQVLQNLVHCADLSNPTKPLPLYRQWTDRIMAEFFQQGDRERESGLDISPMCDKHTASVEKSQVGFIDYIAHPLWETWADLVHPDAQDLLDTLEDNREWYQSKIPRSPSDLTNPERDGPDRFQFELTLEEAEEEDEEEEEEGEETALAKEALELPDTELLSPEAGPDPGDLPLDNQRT
T3 sequence (Q07343 whole entry): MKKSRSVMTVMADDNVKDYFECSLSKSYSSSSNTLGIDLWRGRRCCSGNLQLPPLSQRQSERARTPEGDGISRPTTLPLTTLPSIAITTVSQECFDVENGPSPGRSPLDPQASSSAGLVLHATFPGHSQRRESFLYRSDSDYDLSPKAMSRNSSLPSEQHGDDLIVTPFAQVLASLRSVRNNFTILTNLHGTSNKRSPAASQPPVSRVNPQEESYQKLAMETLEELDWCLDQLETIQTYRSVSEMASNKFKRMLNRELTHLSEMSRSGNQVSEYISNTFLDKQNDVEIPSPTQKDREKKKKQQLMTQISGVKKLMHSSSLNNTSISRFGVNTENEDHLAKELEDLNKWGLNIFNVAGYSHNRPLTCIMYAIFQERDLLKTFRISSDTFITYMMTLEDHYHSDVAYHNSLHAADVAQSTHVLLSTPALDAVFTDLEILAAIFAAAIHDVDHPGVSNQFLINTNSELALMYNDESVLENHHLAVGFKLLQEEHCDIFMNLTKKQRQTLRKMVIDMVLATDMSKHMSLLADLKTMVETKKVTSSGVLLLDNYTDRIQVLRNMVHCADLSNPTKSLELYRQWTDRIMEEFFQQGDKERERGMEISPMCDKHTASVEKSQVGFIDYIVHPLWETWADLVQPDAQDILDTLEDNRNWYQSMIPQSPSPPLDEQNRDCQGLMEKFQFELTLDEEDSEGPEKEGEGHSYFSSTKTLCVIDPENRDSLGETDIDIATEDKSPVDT
T5 sequence (Q08499 whole entry): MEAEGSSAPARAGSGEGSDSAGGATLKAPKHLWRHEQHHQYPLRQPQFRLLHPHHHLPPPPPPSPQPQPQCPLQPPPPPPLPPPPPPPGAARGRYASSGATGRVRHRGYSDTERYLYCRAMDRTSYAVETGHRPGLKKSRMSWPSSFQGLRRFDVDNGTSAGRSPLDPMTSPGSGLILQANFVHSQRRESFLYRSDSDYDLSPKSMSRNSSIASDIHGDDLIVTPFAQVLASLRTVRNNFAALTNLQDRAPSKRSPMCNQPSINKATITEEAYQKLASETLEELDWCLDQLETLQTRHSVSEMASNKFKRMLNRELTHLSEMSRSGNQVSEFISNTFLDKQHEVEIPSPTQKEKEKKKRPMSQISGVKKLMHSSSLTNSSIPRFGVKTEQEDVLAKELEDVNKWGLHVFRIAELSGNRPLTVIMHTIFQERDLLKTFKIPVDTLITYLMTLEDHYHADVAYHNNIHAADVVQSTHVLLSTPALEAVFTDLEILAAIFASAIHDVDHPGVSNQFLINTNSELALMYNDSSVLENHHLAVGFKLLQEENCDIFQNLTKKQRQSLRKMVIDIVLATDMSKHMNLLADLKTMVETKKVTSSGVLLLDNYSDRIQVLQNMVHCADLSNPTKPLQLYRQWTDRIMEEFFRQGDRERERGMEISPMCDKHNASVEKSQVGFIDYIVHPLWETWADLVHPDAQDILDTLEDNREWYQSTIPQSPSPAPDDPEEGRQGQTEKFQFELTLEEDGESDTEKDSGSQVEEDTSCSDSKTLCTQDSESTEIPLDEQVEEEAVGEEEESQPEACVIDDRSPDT

`CN(C)C(=O)c1cc2cnc(Nc3ccc(N4CCNCC4)cn3)nc2n1C1CCCC1` [Ribociclib, 7-Cyclopentyl-N,N-dimethyl-2-{[5-(1-piperazinyl)-2-pyridinyl]amino}-7H-pyrrolo[2,3-d]pyrimidine-6-carboxamide]: the PDE3B activity entry at PDE3B was “would not inhibit”. For the same compound, the PDE4A activity entry at PDE4A was “significantly inhibit PDE4A activity”. Besides, on PDE4B, the PDE4B activity entry was “significantly inhibit PDE4B activity”. Moreover, the PDE4C activity result at PDE4C is “significantly inhibit PDE4C activity”. Besides, the PDE4D activity entry on PDE4D is on record as “significantly inhibit PDE4D activity”. Further, the PDE7A activity result at PDE7A was “would not inhibit”. For the same compound, the “generation of superoxide anion” value with Human neutrophils is listed as “significantly restrict the generation of superoxide anion”. Also, the psoriasis-like symptoms result in the assay on IMQ-treated mice (10 mg/kg of the body weight) and with IMQ-treated mice (20 mg/kg of the body weight) was “can improve or cure the psoriasis-like symptoms” each time.
